Measured values reported in PubChem BioAssay AID248 (DTP/NCI, 2004).
“And” between values parts separate entries of the source, which are not always exact repeats. Equal entries are not always repeated. Toxic doses and inconclusive results are not listed. Rule as the data show it: active = T/C of 150% or more; inactive = T/C below 125%.

Tested on: L1210 leukemia ip in BDF1 mice, survival T/C
Experiment: NCI In Vivo Anticancer Drug Screen. Data for tumor model L1210 Leukemia (intraperitoneal) in B6D2F1 (BDF1) mice
Settings: endpoint: mean survival time, higher = longer survival
Summary of the method: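 Ratio derived from survival: compound-dosed mice over vehicle-dosed mice, all bearing a transplantable tumor.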

[1] = dose: 100.0 mg/kg/injection, schedule: Q01DX001 (ip), vehicle: Klucel (hydroxypropylcellulose) (HPC)
[2] = dose: 100.0 mg/kg/injection, schedule: Q01DX009 (ip), vehicle: Klucel (hydroxypropylcellulose) (HPC)
[3] = dose: 100.0 mg/kg/injection, schedule: Q04DX003 (ip), vehicle: Klucel (hydroxypropylcellulose) (HPC)
[4] = dose: 200.0 mg/kg/injection, schedule: Q01DX001 (ip), vehicle: Klucel (hydroxypropylcellulose) (HPC)
[5] = dose: 200.0 mg/kg/injection, schedule: Q01DX009 (ip), vehicle: Klucel (hydroxypropylcellulose) (HPC)
[6] = dose: 200.0 mg/kg/injection, schedule: Q04DX003 (ip), vehicle: Klucel (hydroxypropylcellulose) (HPC)
[7] = dose: 400.0 mg/kg/injection, schedule: Q01DX009 (ip), vehicle: Klucel (hydroxypropylcellulose) (HPC)
[8] = dose: 400.0 mg/kg/injection, schedule: Q04DX003 (ip), vehicle: Klucel (hydroxypropylcellulose) (HPC)
[9] = dose: 25.0 mg/kg/injection, schedule: Q01DX009 (ip), vehicle: Klucel (hydroxypropylcellulose) (HPC)
[10] = dose: 50.0 mg/kg/injection, schedule: Q01DX009 (ip), vehicle: Klucel (hydroxypropylcellulose) (HPC)
[11] = dose: 100.0 mg/kg/injection, schedule: Q04DX003 (ip), vehicle: saline with Tween-80
[12] = dose: 200.0 mg/kg/injection, schedule: Q04DX003 (ip), vehicle: saline with Tween-80

Measured: T/C

CSc1ccc(OC2CCCCC2OS(C)(=O)=O)cc1 (configuration not stated)
inactive: [1] 102 % of control | [2] 98 % of control | [3] 107 % of control | [4] 102 % of control | [5] 98 % of control | [6] 91 % of control | dose: 400.0 mg/kg/injection, schedule: Q01DX001 (ip), vehicle: Klucel (hydroxypropylcellulose) (HPC) 94 % of control | [7] 96 % of control | [8] 96 % of control

CN(C)P1(=O)OCC(C(C)(C)C)CO1 (configuration not stated)
inactive: dose: 100.0 mg/kg/injection, schedule: Q04DX003 (ip), vehicle: saline 112 % of control

CN(C(=O)CCl)c1ccccc1
inactive: dose: 12.5 mg/kg/injection, schedule: Q01DX009 (ip), vehicle: Klucel (hydroxypropylcellulose) (HPC) 92 % of control | [9] 98 % of control | dose: 25.0 mg/kg/injection, schedule: Q04DX003 (ip), vehicle: Klucel (hydroxypropylcellulose) (HPC) 104 % of control | [10] 93 % of control | dose: 50.0 mg/kg/injection, schedule: Q04DX003 (ip), vehicle: Klucel (hydroxypropylcellulose) (HPC) 98 % of control | [3] 88 % of control

Cc1ccc(S(=O)(=O)N/N=C/N(C)C)cc1
inactive: [2] 91 % of control | [3] 102 % of control | [5] 98 % of control | [6] 103 % of control | [7] 96 % of control | [8] 97 % of control

O=[N+]([O-])c1ccc(C(Br)C(Br)c2ccccc2Cl)cc1 (configuration not stated)
inactive: [2] 96 % of control | [3] 110 % of control | [5] 98 % of control | [6] 100 % of control | [7] 93 % of control | [8] 94 % of control

CCOC(=O)C1CN(C2CCCCC2)CCC1=O (configuration not stated)
inactive: dose: 18.75 mg/kg/injection, schedule: Q01DX009 (ip), vehicle: saline 93 % of control | dose: 37.5 mg/kg/injection, schedule: Q01DX009 (ip), vehicle: saline 92 % of control | dose: 37.5 mg/kg/injection, schedule: Q04DX003 (ip), vehicle: saline 98 % of control | dose: 75.0 mg/kg/injection, schedule: Q01DX001 (ip), vehicle: saline 102 % of control | dose: 75.0 mg/kg/injection, schedule: Q01DX009 (ip), vehicle: saline 93 % of control | dose: 75.0 mg/kg/injection, schedule: Q04DX003 (ip), vehicle: saline 100 % of control | dose: 150.0 mg/kg/injection, schedule: Q01DX001 (ip), vehicle: saline 95 % of control | dose: 150.0 mg/kg/injection, schedule: Q04DX003 (ip), vehicle: saline 94 % of control

CN(C)/C=C1\C(=O)Nc2c1c(=O)n(C)c(=O)n2C
inactive: dose: 50.0 mg/kg/injection, schedule: Q01DX009 (ip), vehicle: saline 93 % of control | dose: 100.0 mg/kg/injection, schedule: Q01DX009 (ip), vehicle: saline 90 % of control

Cc1cccc(C)c1NC(=O)C(C)C
inactive: dose: 100.0 mg/kg/injection, schedule: Q01DX009 (ip), vehicle: saline with Tween-80 94 % of control | [11] 98 % of control | dose: 200.0 mg/kg/injection, schedule: Q01DX009 (ip), vehicle: saline with Tween-80 95 % of control | [12] 98 % of control | dose: 400.0 mg/kg/injection, schedule: Q01DX009 (ip), vehicle: saline with Tween-80 90 % of control | dose: 400.0 mg/kg/injection, schedule: Q04DX003 (ip), vehicle: saline with Tween-80 96 % of control

COc1ccccc1N=Nc1c(O)n(-c2ccc(C)cc2)c(=S)n(-c2ccccc2)c1=O
inactive: dose: 50.0 mg/kg/injection, schedule: Q01DX001 (ip), vehicle: Klucel (hydroxypropylcellulose) (HPC) 94 % of control | [1] 87 % of control | [4] 89 % of control

CCCCCCCCCCCC(=O)N/N=C(\C)c1cccc2ccccc12
inactive: [9] 92 % of control | [10] 96 % of control | [2] 88 % of control and 92 % of control

CCOc1ncc([N+](=O)[O-])cn1
inactive: [3] 101 % of control | [6] 114 % of control | [8] 103 % of control

ClCCOc1ccccc1
inactive: dose: 100.0 mg/kg/injection, schedule: Q01DX001 (ip), vehicle: saline 95 % of control | dose: 200.0 mg/kg/injection, schedule: Q01DX001 (ip), vehicle: saline 101 % of control

CC(C)Oc1c(N(C)CCO)c2cc(Cl)ccc2oc1=O
inactive: [11] 95 % of control | [12] 101 % of control
